According to patent US10711002B2, “Purine compounds and method for the treatment of cancer” (THE ROYAL INSTITUTION FOR THE ADVANCEMENT OF …, priority 2016, dated 2020):

Each molecule was assayed against AKT1 (PKB alpha) (Homo sapiens, UniProt P31749) (assay: High-throughput kinase assay). Settings: 100 nM; read-out: Percent inhibition of kinase activity in vitro, AKT1 (PKB alpha).
Format: biochemical
Experimental: (§1) Screening of Compounds 1-4 against several kinases identified two prominent targets of these compounds as the Aurora A kinase and calcium dependent protein kinase C isoforms α, βI, βII and […] (Tables 1 to 3). IC50s for these two targets were obtained by plotting inhibition levels at 500 nM, 100 nM, 50 nM and 10 nM (FIG. 3). These kinases are directly involved in pathways controlling cell differentiation programs, metastasis signaling, as well as EMT and CSC programming and their overexpression was reported to predict decreased metastasis-free survival.

AKT1 (PKB alpha), sequence (P31749 whole entry): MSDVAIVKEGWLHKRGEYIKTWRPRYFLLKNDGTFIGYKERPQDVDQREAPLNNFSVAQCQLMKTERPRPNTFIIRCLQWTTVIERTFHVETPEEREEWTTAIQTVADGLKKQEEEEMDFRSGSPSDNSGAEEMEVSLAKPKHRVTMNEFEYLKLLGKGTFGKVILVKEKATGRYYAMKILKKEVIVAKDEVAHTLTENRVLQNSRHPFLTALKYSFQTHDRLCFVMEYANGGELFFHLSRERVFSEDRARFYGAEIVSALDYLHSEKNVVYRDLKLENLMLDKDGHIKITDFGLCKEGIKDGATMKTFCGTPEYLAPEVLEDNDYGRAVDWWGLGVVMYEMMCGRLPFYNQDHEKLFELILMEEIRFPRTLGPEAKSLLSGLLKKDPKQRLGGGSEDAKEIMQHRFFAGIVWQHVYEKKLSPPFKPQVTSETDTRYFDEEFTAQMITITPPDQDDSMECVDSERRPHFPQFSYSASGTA

Question: How did the inhibition at 0.1 µM turn out when `C[C@@H]1C(Nc2nc(-n3[se]c4ccccc4c3=O)nc3[nH]cnc23)C[C@H]2C[C@@H]1C2(C)C` (stereo partly shown) [Compound 3] was run?
Answer: 1%

Same assay, conditions: 500 nM; read-out: Percent inhibition of kinase activity in vitro, AKT1 (PKB alpha)

Question: How did the inhibition at 0.5 µM turn out when `C[C@@H]1C(Nc2nc(-n3[se]c4ccccc4c3=O)nc3[nH]cnc23)C[C@H]2C[C@@H]1C2(C)C` (stereo partly shown) [Compound 3] was run?
Answer: 29%

The molecules below were run against SRC (Homo sapiens, UniProt P12931) (assay: High-throughput kinase assay). Settings: 100 nM; read-out: Percent inhibition of kinase activity in vitro, SRC.
Format: biochemical
Experimental: as §1

Question: `C[C@@H]1C(Nc2nc(-n3[se]c4ccccc4c3=O)nc3[nH]cnc23)C[C@H]2C[C@@H]1C2(C)C` (stereo partly shown) [Compound 3] was tested. Which inhibition at 0.1 µM did it give?
Answer: 4%

Same assay, conditions: 500 nM; read-out: Percent inhibition of kinase activity in vitro, SRC

Question: For `C[C@@H]1C(Nc2nc(-n3[se]c4ccccc4c3=O)nc3[nH]cnc23)C[C@H]2C[C@@H]1C2(C)C` (stereo partly shown) [Compound 3], which inhibition at 0.5 µM is on record?
Answer: 7%

These molecules were tested against PRKCA (PKC alpha) (Homo sapiens, UniProt P17252) (assay: High-throughput kinase assay). Settings: 100 nM; read-out: Percent inhibition of kinase activity in vitro, PRKCA (PKC alpha).
Format: biochemical
Experimental: as §1

Question: Which inhibition at 0.1 µM does the source give for `C[C@@H]1C(Nc2nc(-n3[se]c4ccccc4c3=O)nc3[nH]cnc23)C[C@H]2C[C@@H]1C2(C)C` (stereo partly shown) [Compound 3] here?
Answer: 45%

Same assay, conditions: 500 nM; read-out: Percent inhibition of kinase activity in vitro, PRKCA (PKC alpha)

Question: With `C[C@@H]1C(Nc2nc(-n3[se]c4ccccc4c3=O)nc3[nH]cnc23)C[C@H]2C[C@@H]1C2(C)C` (stereo partly shown) [Compound 3] as the molecule, how does the inhibition at 0.5 µM read?
Answer: 86%

What follows are molecules tested against YES1 (Homo sapiens, UniProt P07947) (assay: High-throughput kinase assay). Settings: 100 nM; read-out: Percent inhibition of kinase activity in vitro, YES1.
YES1, sequence (P07947 whole entry): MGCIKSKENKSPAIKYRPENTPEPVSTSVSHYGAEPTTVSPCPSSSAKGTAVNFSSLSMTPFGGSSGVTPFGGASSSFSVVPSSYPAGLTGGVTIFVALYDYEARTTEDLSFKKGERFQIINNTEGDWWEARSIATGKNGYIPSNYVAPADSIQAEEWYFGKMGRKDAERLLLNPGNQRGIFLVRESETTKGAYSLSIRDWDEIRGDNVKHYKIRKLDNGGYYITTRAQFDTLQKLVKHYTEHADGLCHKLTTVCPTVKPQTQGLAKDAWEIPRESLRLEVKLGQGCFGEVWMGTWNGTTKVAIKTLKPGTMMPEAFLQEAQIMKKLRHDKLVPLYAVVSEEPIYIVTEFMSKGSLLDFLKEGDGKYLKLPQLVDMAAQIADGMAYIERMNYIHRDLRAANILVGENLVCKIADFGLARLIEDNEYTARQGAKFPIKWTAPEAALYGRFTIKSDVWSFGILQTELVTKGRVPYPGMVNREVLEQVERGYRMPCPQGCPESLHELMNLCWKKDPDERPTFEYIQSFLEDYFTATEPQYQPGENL
Format: biochemical
Experimental: as §1

Question: Which inhibition at 0.1 µM does the source give for `C[C@@H]1C(Nc2nc(-n3[se]c4ccccc4c3=O)nc3[nH]cnc23)C[C@H]2C[C@@H]1C2(C)C` (stereo partly shown) [Compound 3] here?
Answer: 17%

Same assay, conditions: 500 nM; read-out: Percent inhibition of kinase activity in vitro, YES1

Question: For `C[C@@H]1C(Nc2nc(-n3[se]c4ccccc4c3=O)nc3[nH]cnc23)C[C@H]2C[C@@H]1C2(C)C` (stereo partly shown) [Compound 3], which inhibition at 0.5 µM is on record?
Answer: 53%

The molecules below were run against RET (Homo sapiens, UniProt P07949) (assay: High-throughput kinase assay). Settings: 100 nM; read-out: Percent inhibition of kinase activity in vitro, RET.
Format: biochemical
Experimental: as §1

Question: With `C[C@@H]1C(Nc2nc(-n3[se]c4ccccc4c3=O)nc3[nH]cnc23)C[C@H]2C[C@@H]1C2(C)C` (stereo partly shown) [Compound 3] as the molecule, how does the inhibition at 0.1 µM read?
Answer: 5%

Same assay, conditions: 500 nM; read-out: Percent inhibition of kinase activity in vitro, RET

Question: Which inhibition at 0.5 µM does the source give for `C[C@@H]1C(Nc2nc(-n3[se]c4ccccc4c3=O)nc3[nH]cnc23)C[C@H]2C[C@@H]1C2(C)C` (stereo partly shown) [Compound 3] here?
Answer: 36%

The molecules below were run against MET (cMet) (Homo sapiens, UniProt P08581) (assay: High-throughput kinase assay). Settings: 100 nM; read-out: Percent inhibition of kinase activity in vitro, MET (cMet).
Format: biochemical
Experimental: as §1

Question: With `C[C@@H]1C(Nc2nc(-n3[se]c4ccccc4c3=O)nc3[nH]cnc23)C[C@H]2C[C@@H]1C2(C)C` (stereo partly shown) [Compound 3] as the molecule, how does the inhibition at 0.1 µM read?
Answer: 0%

Same assay, conditions: 500 nM; read-out: Percent inhibition of kinase activity in vitro, MET (cMet)

Question: `C[C@@H]1C(Nc2nc(-n3[se]c4ccccc4c3=O)nc3[nH]cnc23)C[C@H]2C[C@@H]1C2(C)C` (stereo partly shown) [Compound 3] was tested. Which inhibition at 0.5 µM did it give?
Answer: 17%

Each molecule was assayed against PIK3CA/PIK3R1 (Homo sapiens, UniProt P42336) (assay: High-throughput kinase assay). Settings: 100 nM; read-out: Percent inhibition of kinase activity in vitro, PIK3CA/PIK3R1.
PIK3CA/PIK3R1, sequence (P42336 whole entry): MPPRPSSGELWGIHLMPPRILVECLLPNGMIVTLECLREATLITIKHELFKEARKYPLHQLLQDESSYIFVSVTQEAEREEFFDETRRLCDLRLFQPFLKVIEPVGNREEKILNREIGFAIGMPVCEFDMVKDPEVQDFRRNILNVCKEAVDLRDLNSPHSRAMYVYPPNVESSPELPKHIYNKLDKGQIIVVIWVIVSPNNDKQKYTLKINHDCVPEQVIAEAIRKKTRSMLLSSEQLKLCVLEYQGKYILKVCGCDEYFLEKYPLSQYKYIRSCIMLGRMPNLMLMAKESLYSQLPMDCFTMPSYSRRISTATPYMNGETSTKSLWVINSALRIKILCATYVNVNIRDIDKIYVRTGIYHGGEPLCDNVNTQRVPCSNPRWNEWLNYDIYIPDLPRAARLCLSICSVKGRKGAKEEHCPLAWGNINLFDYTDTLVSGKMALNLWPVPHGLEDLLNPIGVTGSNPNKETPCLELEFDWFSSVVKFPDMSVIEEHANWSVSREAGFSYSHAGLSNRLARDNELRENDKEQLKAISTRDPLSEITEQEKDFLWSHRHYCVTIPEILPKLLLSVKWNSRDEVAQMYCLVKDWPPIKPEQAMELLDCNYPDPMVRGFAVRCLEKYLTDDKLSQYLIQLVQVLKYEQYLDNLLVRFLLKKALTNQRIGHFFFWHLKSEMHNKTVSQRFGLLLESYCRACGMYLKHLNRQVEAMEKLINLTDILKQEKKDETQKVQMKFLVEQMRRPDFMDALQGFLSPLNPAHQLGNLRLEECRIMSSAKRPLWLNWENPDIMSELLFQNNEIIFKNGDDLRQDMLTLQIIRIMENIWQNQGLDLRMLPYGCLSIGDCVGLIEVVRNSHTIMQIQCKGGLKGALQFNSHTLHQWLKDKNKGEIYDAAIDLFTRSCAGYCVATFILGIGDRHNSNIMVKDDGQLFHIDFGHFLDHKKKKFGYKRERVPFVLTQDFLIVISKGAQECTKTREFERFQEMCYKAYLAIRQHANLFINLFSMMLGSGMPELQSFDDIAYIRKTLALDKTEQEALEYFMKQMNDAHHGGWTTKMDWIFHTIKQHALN
PIK3CA/PIK3R1, sequence (P27986 whole entry partner): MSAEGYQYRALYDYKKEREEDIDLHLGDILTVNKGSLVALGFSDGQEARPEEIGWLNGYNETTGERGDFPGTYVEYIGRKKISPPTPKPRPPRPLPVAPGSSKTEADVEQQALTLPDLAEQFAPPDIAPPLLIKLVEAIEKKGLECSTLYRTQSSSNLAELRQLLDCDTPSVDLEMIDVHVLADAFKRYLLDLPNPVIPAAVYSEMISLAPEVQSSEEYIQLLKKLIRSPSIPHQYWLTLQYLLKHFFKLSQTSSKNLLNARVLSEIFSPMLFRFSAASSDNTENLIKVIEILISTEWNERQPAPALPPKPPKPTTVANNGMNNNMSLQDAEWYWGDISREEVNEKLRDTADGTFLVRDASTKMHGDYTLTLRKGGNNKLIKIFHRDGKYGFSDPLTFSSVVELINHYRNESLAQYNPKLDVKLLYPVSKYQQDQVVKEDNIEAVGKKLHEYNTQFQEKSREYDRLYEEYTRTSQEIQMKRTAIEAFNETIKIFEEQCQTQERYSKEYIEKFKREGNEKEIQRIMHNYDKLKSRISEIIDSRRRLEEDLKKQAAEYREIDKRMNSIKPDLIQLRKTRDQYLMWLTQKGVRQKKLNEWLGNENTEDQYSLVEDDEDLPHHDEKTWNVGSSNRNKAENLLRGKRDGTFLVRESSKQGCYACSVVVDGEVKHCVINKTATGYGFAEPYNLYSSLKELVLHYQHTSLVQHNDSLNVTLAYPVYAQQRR
Format: biochemical
Experimental: as §1

Question: With `C[C@@H]1C(Nc2nc(-n3[se]c4ccccc4c3=O)nc3[nH]cnc23)C[C@H]2C[C@@H]1C2(C)C` (stereo partly shown) [Compound 3] as the molecule, how does the inhibition at 0.1 µM read?
Answer: 12%

Same assay, conditions: 500 nM; read-out: Percent inhibition of kinase activity in vitro, PIK3CA/PIK3R1

Question: With `C[C@@H]1C(Nc2nc(-n3[se]c4ccccc4c3=O)nc3[nH]cnc23)C[C@H]2C[C@@H]1C2(C)C` (stereo partly shown) [Compound 3] as the molecule, how does the inhibition at 0.5 µM read?
Answer: 53%

These molecules were tested against RAF1 (cRAF) Y340D Y341D (Homo sapiens, UniProt P04049, Y340D/Y341D) (assay: High-throughput kinase assay). Settings: 500 nM; read-out: Percent inhibition of kinase activity in vitro, RAF1 (cRAF) Y340D Y341D.
Format: biochemical
Experimental: as §1

Question: `C[C@@H]1C(Nc2nc(-n3[se]c4ccccc4c3=O)nc3[nH]cnc23)C[C@H]2C[C@@H]1C2(C)C` (stereo partly shown) [Compound 3] was tested. Which inhibition at 0.5 µM did it give?
Answer: 10%

What follows are molecules tested against IGF1R (Homo sapiens, UniProt P08069) (assay: High-throughput kinase assay). Settings: 500 nM; read-out: Percent inhibition of kinase activity in vitro, IGF1R.
Format: biochemical
Experimental: as §1

Question: Which inhibition at 0.5 µM does the source give for `C[C@@H]1C(Nc2nc(-n3[se]c4ccccc4c3=O)nc3[nH]cnc23)C[C@H]2C[C@@H]1C2(C)C` (stereo partly shown) [Compound 3] here?
Answer: 13%

The molecules below were run against FGFR1 (Homo sapiens, UniProt P11362) (assay: High-throughput kinase assay). Settings: 500 nM; read-out: Percent inhibition of kinase activity in vitro, FGFR1.
Format: biochemical
Experimental: as §1

Question: `C[C@@H]1C(Nc2nc(-n3[se]c4ccccc4c3=O)nc3[nH]cnc23)C[C@H]2C[C@@H]1C2(C)C` (stereo partly shown) [Compound 3] was tested. Which inhibition at 0.5 µM did it give?
Answer: 13%

The molecules below were run against PTK2 (FAK) (Homo sapiens, UniProt Q05397) (assay: High-throughput kinase assay). Settings: 100 nM; read-out: Percent inhibition of kinase activity in vitro, PTK2 (FAK).
PTK2 (FAK), sequence (Q05397 whole entry): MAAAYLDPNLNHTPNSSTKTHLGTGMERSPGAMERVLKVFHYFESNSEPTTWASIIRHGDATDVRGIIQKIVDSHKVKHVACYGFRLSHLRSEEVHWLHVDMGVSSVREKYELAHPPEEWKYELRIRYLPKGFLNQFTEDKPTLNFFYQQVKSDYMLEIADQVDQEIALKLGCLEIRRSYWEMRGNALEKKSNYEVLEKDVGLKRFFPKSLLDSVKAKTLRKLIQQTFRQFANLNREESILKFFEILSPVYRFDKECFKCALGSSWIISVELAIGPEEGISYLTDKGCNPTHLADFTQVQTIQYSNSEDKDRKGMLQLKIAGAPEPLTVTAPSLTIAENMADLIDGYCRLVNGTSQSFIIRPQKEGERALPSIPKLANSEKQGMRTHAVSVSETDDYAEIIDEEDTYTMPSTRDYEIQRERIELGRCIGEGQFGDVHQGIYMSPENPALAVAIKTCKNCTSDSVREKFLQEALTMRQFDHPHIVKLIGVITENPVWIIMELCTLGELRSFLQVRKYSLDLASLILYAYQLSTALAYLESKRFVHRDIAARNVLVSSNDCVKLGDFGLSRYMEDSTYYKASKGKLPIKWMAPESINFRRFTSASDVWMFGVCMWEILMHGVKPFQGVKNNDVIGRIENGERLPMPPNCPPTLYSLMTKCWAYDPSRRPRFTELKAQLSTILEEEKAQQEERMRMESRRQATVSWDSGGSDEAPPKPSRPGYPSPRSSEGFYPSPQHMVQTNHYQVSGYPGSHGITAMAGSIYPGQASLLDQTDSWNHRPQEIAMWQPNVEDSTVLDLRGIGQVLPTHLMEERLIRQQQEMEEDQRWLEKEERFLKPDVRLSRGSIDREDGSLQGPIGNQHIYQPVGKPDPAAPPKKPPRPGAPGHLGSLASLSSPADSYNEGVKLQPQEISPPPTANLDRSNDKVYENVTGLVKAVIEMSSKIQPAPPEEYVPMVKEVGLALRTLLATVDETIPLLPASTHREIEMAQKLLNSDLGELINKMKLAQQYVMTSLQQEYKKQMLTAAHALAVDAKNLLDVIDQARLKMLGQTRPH
Format: biochemical
Experimental: as §1

Question: How did the inhibition at 0.1 µM turn out when `C[C@@H]1C(Nc2nc(-n3[se]c4ccccc4c3=O)nc3[nH]cnc23)C[C@H]2C[C@@H]1C2(C)C` (stereo partly shown) [Compound 3] was run?
Answer: 0%

Same assay, conditions: 500 nM; read-out: Percent inhibition of kinase activity in vitro, PTK2 (FAK)

Question: For `C[C@@H]1C(Nc2nc(-n3[se]c4ccccc4c3=O)nc3[nH]cnc23)C[C@H]2C[C@@H]1C2(C)C` (stereo partly shown) [Compound 3], which inhibition at 0.5 µM is on record?
Answer: 8%

These molecules were tested against T1, AURKA (Aurora A) (Homo sapiens, UniProt O14965) (assay: High-throughput kinase assay). Settings: 100 nM; read-out: Percent inhibition of kinase activity in vitro, AURKA (Aurora A).
T1 sequence (O14965 1-403): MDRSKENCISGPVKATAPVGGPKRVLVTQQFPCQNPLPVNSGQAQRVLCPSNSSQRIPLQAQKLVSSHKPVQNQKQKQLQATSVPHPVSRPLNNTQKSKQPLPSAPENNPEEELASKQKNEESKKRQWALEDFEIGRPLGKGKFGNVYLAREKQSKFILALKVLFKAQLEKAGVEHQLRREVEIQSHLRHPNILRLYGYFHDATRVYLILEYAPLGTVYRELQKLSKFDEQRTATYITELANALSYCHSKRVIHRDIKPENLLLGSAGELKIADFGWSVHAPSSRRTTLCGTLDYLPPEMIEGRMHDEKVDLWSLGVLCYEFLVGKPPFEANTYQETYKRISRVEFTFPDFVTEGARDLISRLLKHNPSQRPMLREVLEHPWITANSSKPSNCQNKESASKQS
Format: biochemical
Experimental: as §1

Question: For `C[C@@H]1C(Nc2nc(-n3[se]c4ccccc4c3=O)nc3[nH]cnc23)C[C@H]2C[C@@H]1C2(C)C` (stereo partly shown) [Compound 3], which inhibition at 0.1 µM is on record?
Answer: 78%

Same assay, conditions: 500 nM; read-out: Percent inhibition of kinase activity in vitro, AURKA (Aurora A)

Question: With `C[C@@H]1C(Nc2nc(-n3[se]c4ccccc4c3=O)nc3[nH]cnc23)C[C@H]2C[C@@H]1C2(C)C` (stereo partly shown) [Compound 3] as the molecule, how does the inhibition at 0.5 µM read?
Answer: 99%

Each molecule was assayed against FRAP1 (mTOR) (Homo sapiens, UniProt P42345) (assay: High-throughput kinase assay). Settings: 500 nM; read-out: Percent inhibition of kinase activity in vitro, FRAP1 (mTOR).
Format: biochemical
Experimental: as §1

Question: Which inhibition at 0.5 µM does the source give for `C[C@@H]1C(Nc2nc(-n3[se]c4ccccc4c3=O)nc3[nH]cnc23)C[C@H]2C[C@@H]1C2(C)C` (stereo partly shown) [Compound 3] here?
Answer: 1%

What follows are molecules tested against FLT1 (VEGFR1) (Homo sapiens, UniProt P17948) (assay: High-throughput kinase assay). Settings: 500 nM; read-out: Percent inhibition of kinase activity in vitro, FLT1 (VEGFR1).
Format: biochemical
Experimental: as §1

Question: How did the inhibition at 0.5 µM turn out when `C[C@@H]1C(Nc2nc(-n3[se]c4ccccc4c3=O)nc3[nH]cnc23)C[C@H]2C[C@@H]1C2(C)C` (stereo partly shown) [Compound 3] was run?
Answer: 7%

Each molecule was assayed against LCK (Homo sapiens, UniProt P06239) (assay: High-throughput kinase assay). Settings: 100 nM; read-out: Percent inhibition of kinase activity in vitro, LCK.
LCK, sequence (P06239 whole entry): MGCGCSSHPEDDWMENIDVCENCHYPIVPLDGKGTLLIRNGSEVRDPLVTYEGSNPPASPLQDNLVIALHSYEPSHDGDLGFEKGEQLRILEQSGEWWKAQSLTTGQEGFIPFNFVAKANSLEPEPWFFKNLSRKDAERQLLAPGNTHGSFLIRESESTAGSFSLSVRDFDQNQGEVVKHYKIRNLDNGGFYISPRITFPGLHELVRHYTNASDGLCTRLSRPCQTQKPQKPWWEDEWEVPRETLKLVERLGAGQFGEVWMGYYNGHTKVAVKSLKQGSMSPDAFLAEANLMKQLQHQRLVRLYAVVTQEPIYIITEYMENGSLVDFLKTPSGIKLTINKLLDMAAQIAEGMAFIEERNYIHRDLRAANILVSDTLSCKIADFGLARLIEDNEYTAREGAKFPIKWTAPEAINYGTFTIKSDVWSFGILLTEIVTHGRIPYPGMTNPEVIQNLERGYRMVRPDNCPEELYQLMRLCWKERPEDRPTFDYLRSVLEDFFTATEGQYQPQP
Format: biochemical
Experimental: as §1

Question: How did the inhibition at 0.1 µM turn out when `C[C@@H]1C(Nc2nc(-n3[se]c4ccccc4c3=O)nc3[nH]cnc23)C[C@H]2C[C@@H]1C2(C)C` (stereo partly shown) [Compound 3] was run?
Answer: 0%

Same assay, conditions: 500 nM; read-out: Percent inhibition of kinase activity in vitro, LCK

Question: Which inhibition at 0.5 µM does the source give for `C[C@@H]1C(Nc2nc(-n3[se]c4ccccc4c3=O)nc3[nH]cnc23)C[C@H]2C[C@@H]1C2(C)C` (stereo partly shown) [Compound 3] here?
Answer: 16%

What follows are molecules tested against EEF2K (Homo sapiens, UniProt O00418) (assay: High-throughput kinase assay). Settings: 500 nM; read-out: Percent inhibition of kinase activity in vitro, EEF2K.
Format: biochemical
Experimental: as §1

Question: For `C[C@@H]1C(Nc2nc(-n3[se]c4ccccc4c3=O)nc3[nH]cnc23)C[C@H]2C[C@@H]1C2(C)C` (stereo partly shown) [Compound 3], which inhibition at 0.5 µM is on record?
Answer: 5%

These molecules were tested against JAK2 (Homo sapiens, UniProt O60674) (assay: High-throughput kinase assay). Settings: 100 nM; read-out: Percent inhibition of kinase activity in vitro, JAK2.
Format: biochemical
Experimental: as §1

Question: With `C[C@@H]1C(Nc2nc(-n3[se]c4ccccc4c3=O)nc3[nH]cnc23)C[C@H]2C[C@@H]1C2(C)C` (stereo partly shown) [Compound 3] as the molecule, how does the inhibition at 0.1 µM read?
Answer: 13%

Same assay, conditions: 500 nM; read-out: Percent inhibition of kinase activity in vitro, JAK2

Question: How did the inhibition at 0.5 µM turn out when `C[C@@H]1C(Nc2nc(-n3[se]c4ccccc4c3=O)nc3[nH]cnc23)C[C@H]2C[C@@H]1C2(C)C` (stereo partly shown) [Compound 3] was run?
Answer: 11%
